In patent US20240166669A1, “QUINAZOLINE AMINE DERIVATIVES AS KRAS INHIBITORS” (Nikang Therapeutics, Inc., priority 2021, published 2024) one finds EC50 data, which are given here for 19 compounds.

Bounds are passed on as bounds.

In one assay the target is T1, K-Ras G12D (Homo sapiens, UniProt P01116, G12D).
T1 construct: AGS (Cobioer, CBP60476) cell lines which harbor KRAS G12D mutation; host or cells: AGS
T1 sequence (P01116 1-188 isoform P01116-2 G12D): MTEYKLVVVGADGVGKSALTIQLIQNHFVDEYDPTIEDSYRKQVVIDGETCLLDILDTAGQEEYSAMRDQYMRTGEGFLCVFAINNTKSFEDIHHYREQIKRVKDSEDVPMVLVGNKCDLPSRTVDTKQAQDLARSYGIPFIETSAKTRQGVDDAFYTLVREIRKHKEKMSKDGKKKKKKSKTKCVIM
The experiment in a line: p-ERK Cellular 2-Plate Assay (Biological Example 2). To be noted: AGS cells (KRAS G12D), 3 h treatment, AlphaLISA p-ERK1/2, 2-plate; Biological Example 2 (unmarked values); read-out: AGS PERK EC50. In kind it is cell-based. The procedure: (§1) The ability of the compound of Formula (IIA′), (II′), or (II) or a pharmaceutically acceptable salt thereof (test compound) to inhibit K-Ras G12D activity was tested using AGS (Cobioer, CBP60476) cell lines which harbor KRAS G12D mutation as described below.
AGS (Cobioer, CBP60476) were seeded in 384-well plates and cultured overnight (10.000 cells per well 40 μl total volume). The following morning, cells were treated with test compound, with staring concentration at 10 μM and 3-fold dilution down to 0.5 nM for 3 h at 37° C., DMSO treatment served as control. p-ERK was then measured using AlphaLISA SureFire Ultra p-ERK1/2 (Thr202/Tyr204) Assay Kit (Perkin Elmer, cat #ALSU-PERK) following the manufacturer's instruction as follows.
Briefly, the culture medium was removed and 20 μl 1× lysis buffer was added to each well, followed by 30 minutes incubation on a plate shaker at room temperature. Then 10 μl of lysate was transferred to a white 384-well plate. Acceptor mixture was prepared according to manufacturer's instruction. 5 μl acceptor mixture was added to the cell lysate and the plate was wrapped with foil, spun at 500 rpm for 10 s, and incubated at RT for 60 min. Donor mixture was prepared under subdued light. 5 μl donor mixture was added to the cell lysate and the plate was spun at 500 rpm for 10s and incubated at RT for another 60 min. in the dark. Signal was then measured on a EnVision 2105 multimode plate reader. Percentage inhibition was calculated with DMSO treatment as 100% of signal, and IC50 was calculated by XLfit 5.5.x.
The term EC50 denotes the concentration that produces a half-maximal response. On to `C#Cc1cccc2cc(O)cc(-c3ncc4c(N5C[C@H]6CC[C@@H](C5)N6)nc(OC[C@@]56CC7COc8ccccc8C7N5C[C@H](F)C6)nc4c3F)c12` (stereo partly drawn) [Example 40, 4-(4-((1R,5S)-3,8-diazabicyclo[3.2.1]octan-3-yl)-8-fluoro-2-(((9R)-9-fluoro-6a,9,10,11a-tetrahydro-6H,7H-chromeno[3,4-b]pyrrolizin-7a(8H)-yl)methoxy)pyrido[4,3-d]pyrimidin-7-yl)-5-ethynylnaphthalen-2-ol], for which the EC50 is 3.6 nM.
Still for that read-out and setting: with `C#Cc1cccc2cc(O)cc(-c3ncc4c(N5CC6CCC(C5)N6)nc(OC[C@]56CCCN5[C@H]5c7ccnn7CC5C6)nc4c3F)c12` (mixture of isomers) [Example 37] the figure was 6.6 nM; with `C#Cc1cccc2cc(O)cc(-c3ncc4c(N5CC6CCC(C5)N6)nc(OCC56CCCN5Cc5cccnc56)nc4c3F)c12` (stereo not shown) [Example 28, 4-(4-(3,8-diazabicyclo[3.2.1]octan-3-yl)-2-((8,9-dihydro-5H-pyrido[2,3-a]-pyrrolizin-9a(7H)-yl)methoxy)-8-fluoropyrido[4,3-d]pyrimidin-7-yl)-5-ethynylnaphthalen-2-ol], 46 nM.
Same read-out and setting: to `C#Cc1cccc2cc(O)cc(-c3ncc4c(N5CC6CCC(C5)N6)nc(OC[C@]56CCCN5[C@H]5c7ccccc7OCC5C6)nc4c3F)c12` (mixture of isomers) [Example 39] belongs 0.25 nM.
Same read-out and setting: with `C#Cc1cccc2cc(O)cc(-c3ncc4c(N5CC6CC(=C)C(C5)N6)nc(OCC56CCCN5CCC6)nc4c3F)c12` (stereo not shown) [Example 10, 5-ethynyl-4-(8-fluoro-4-(6-methylene-3,8-diazabicyclo[3.2.1]octan-3-yl)-2-((tetrahydro-1H-pyrrolizin-7a(5H)-yl)methoxy)pyrido[4,3-d]pyrimidin-7-yl)naphthalen-2-ol] the figure was 128 nM.
In the case of `C#Cc1cccc2cc(O)cc(-c3ncc4c(N5CC6NC(C5)C5CC65)nc(OCC56CCCN5CCC6)nc4c3F)c12` (stereo not shown) [Example 9, 5-ethynyl-4-(8-fluoro-2-((tetrahydro-1H-pyrrolizin-7a(5H)-yl)methoxy)-4-(7,9-diazatricyclo[3.3.1.02,4]nonan-7-yl)pyrido[4,3-d]pyrimidin-7-yl)naphthalen-2-ol], the EC50 is 253 nM.
Still for that read-out and setting: to `C#Cc1c(F)ccc2cccc(-c3ncc4c(N5CC6CCC(C5)N6)nc(OCC56CCCN5Cc5ccccc56)nc4c3F)c12` (stereo not shown) [Example 12, 9b-(((4-(3,8-diazabicyclo[3.2.1]octan-3-yl)-7-(8-ethynyl-7-fluoronaphthalen-1-yl)-8-fluoropyrido[4,3-d]pyrimidin-2-yl)oxy)methyl)-2,3,5,9b-tetrahydro-1H-pyrrolo[2,1-a]isoindole] belongs 105 nM; to `C#Cc1cccc2cc(O)cc(-c3ncc4c(N5CC6CCC(C5)N6)nc(OCC56CCCN5Cc5cnccc56)nc4c3F)c12` (stereo not shown) [Example 31, 4-(4-(3,8-diazabicyclo[3.2.1]octan-3-yl)-2-((6,7-dihydro-5H-pyrido[4,3-a]pyrrolizin-4b(9H)-yl)methoxy)-8-fluoropyrido[4,3-d]pyrimidin-7-yl)-5-ethynylnaphthalen-2-ol], 4.1 nM; to `C#Cc1cccc2cc(O)cc(-c3ncc4c(N5CC6CCC(C5)N6)nc(OCC56CCCN5Cc5ccncc56)nc4c3F)c12` (stereo not shown) [Example 32, 4-(4-(3,8-diazabicyclo[3.2.1]octan-3-yl)-2-((8,9-dihydro-5H-pyrido[3,4-a]pyrrolizin-9a(7H)-yl)methoxy)-8-fluoropyrido[4,3-d]pyrimidin-7-yl)-5-ethynylnaphthalen-2-ol], 6 nM.
With `C#Cc1c(F)ccc2cccc(-c3ncc4c(N5C[C@H]6CC[C@@H](C5)N6)nc(OCC56CCCN5CC(=C)C6)nc4c3F)c12` (stereo partly drawn) [Example 11, 4-((1R,5S)-3,8-diazabicyclo[3.2.1]octan-3-yl)-7-(8-ethynyl-7-fluoronaphthalen-1-yl)-8-fluoro-2-((2-methylenetetrahydro-TH-pyrrolizin-7a(5H)-yl)methoxy)pyrido[4,3-d]pyrimidine], the EC50 turned out to be 7 nM.
Still for that read-out and setting: to `C#Cc1cccc2cc(O)cc(-c3ncc4c(N5C[C@H]6CC[C@@H](C5)N6)nc(OCC56CCCN5Cc5c(C(F)(F)F)cccc56)nc4c3F)c12` (stereo partly drawn) [Example 34, 4-(4-((1R,5S)-3,8-diazabicyclo[3.2.1]octan-3-yl)-8-fluoro-2-((6-(trifluoromethyl)-2,3-dihydro-1H-pyrrolo[2,1-a]isoindol-9b(5H)-yl)methoxy)pyrido-[4,3-d]pyrimidin-7-yl)-5-ethynylnaphthalen-2-ol] belongs 25 nM; to `C#Cc1cccc2cc(O)cc(-c3c(Cl)cc4c(N5C[C@H]6CC[C@@H](C5)N6)nc(OCC56CCCN5CC(=C)C6)nc4c3F)c12` (stereo partly drawn) [Example 56, 4-(4-((1R,5S)-3,8-diazabicyclo[3.2.1]octan-3-yl)-6-chloro-8-fluoro-2-((2-methylenetetrahydro-1H-pyrrolizin-7a(5H)-yl)methoxy)quinazolin-7-yl)-5-ethynylnaphthalen-2-ol], 1.3 nM.
For the compound `C#Cc1cccc2cc(O)cc(-c3ncc4c(N5C[C@H]6CC[C@@H](C5)N6)nc(OCC56CCCN5CC(=CC(F)F)C6)nc4c3F)c12` (stereo partly drawn) [Example 3, 4-(4-((1R,5S)-3,8-diazabicyclo[3.2.1]octan-3-yl)-2-((2-(2,2-difluoroethylidene)-tetrahydro-1H-pyrrolizin-7a(5H)-yl)methoxy)-8-fluoropyrido[4,3-d]pyrimidin-7-yl)-5-ethynylnaphthalen-2-ol], the EC50 stood at 1.5 nM.

The next assay has as its target T1, K-Ras G12D. The experiment in a line: p-ERK Cellular 1-Plate Assay (Biological Example 3). To be noted: AGS cells (KRAS G12D), 3 h treatment, AlphaLISA p-ERK1/2, 1-plate; Biological Example 3 (values marked *); read-out: AGS PERK EC50. In kind it is cell-based. Here is the method:
as §1
AGS (Cobioer, CBP60476) were seeded in 384-well plates and cultured overnight (5,000 cells per well, 40 μl total volume). The following morning, cells were treated with test compound, with starting concentration at 10 μM and 3-fold dilution down to 0.5 nM for 3 h at […]. DMSO treatment served as control. pERK was then measured using AlphaLISA SureFire Ultra p-ERK/2 (Thr202/Tyr204) Assay Kit (Perkin Elmer, cat #ALSU-PERK) following the manufacturer's instruction as follows.
Briefly, the culture medium was removed and 10 μl 1× lysis buffer was added to each well, followed by 10 minutes incubation on a plate shaker at room temperature. Acceptor mixture was prepared according to manufacturer's instruction. 5 μl acceptor mixture was added to the cell lysate and the plate was wrapped with foil, spun at 500 rpm for 10s and incubated at RT for 60 min. Donor mixture was prepared under subdued light. 5 μl donor mixture was added to the cell lysate and the plate was spun at 500 rpm for 10s and incubated at RT for another 60 min. in the dark.
In the case of `C#Cc1c(F)ccc2cc(O)cc(-c3ncc4c(N5C[C@H]6CC[C@H](N6)C5C)nc(OCC56CCCN5CC(=C)C6)nc4c3F)c12` (stereo partly drawn) [Example 54, 5-ethynyl-6-fluoro-4-(8-fluoro-4-((1S,5R)-2-methyl-3,8-diazabicyclo[3.2.1]octan-3-yl)-2-((2-methylene-tetrahydro-1H-pyrrolizin-7a(5H)-yl)methoxy)-pyrido[4,3-d]pyrimidin-7-yl)naphthalen-2-ol], the EC50 came out at 1.4 nM.
Still for that read-out and setting: to `C#Cc1c(F)ccc2cccc(-c3ncc4c(N5C[C@H]6CC[C@@H](C5)N6)nc(OCC56CCCCCN5CC(=C)C6)nc4c3F)c12` (stereo partly drawn) [Example 52, 4-((1R,5S)-3,8-diazabicyclo[3.2.1]octan-3-yl)-7-(8-ethynyl-7-fluoronaphthalen-1-yl)-8-fluoro-2-((2-methylenehexahydro-1H-pyrrolo[1,2-a]azepin-9a(5H)-yl)methoxy)pyrido[4,3-d]pyrimidine] belongs more than 100 nM; to `C#Cc1c(F)ccc2cccc(-c3ncc4c(N5C[C@H]6CC[C@@H](C5)N6)nc(OCC56CCCCN5CC(=C)C6)nc4c3F)c12` (stereo partly drawn) [Example 51, 4-((1R,5S)-3,8-diazabicyclo[3.2.1]octan-3-yl)-7-(8-ethynyl-7-fluoronaphthalen-1-yl)-8-fluoro-2-((2-methylenehexahydroindolizin-8a(1H)-yl)methoxy)pyrido[4,3-d]pyrimidine], 836 nM.
The same measure, in the same setting: with `C#Cc1c(F)ccc2cccc(-c3ncc4c(N5C[C@H]6CC[C@@H](C5)N6)nc(OCC56CCCN5CC(=C)CC6)nc4c3F)c12` (stereo partly drawn) [Example 50, 4-((1R,5S)-3,8-diazabicyclo[3.2.1]octan-3-yl)-7-(8-ethynyl-7-fluoronaphthalen-1-yl)-8-fluoro-2-((6-methylenehexahydroindolizin-8a(1H)-yl)methoxy)-pyrido[4,3-d]pyrimidine] the figure was 213 nM; with `C#Cc1c(F)ccc2cc(O)cc(-c3ncc4c(N5C[C@H]6CC[C@@H](C5)N6)nc(OCC56CCCCN5CC(=C)C6)nc4c3F)c12` (stereo partly drawn) [Example 43, 4-(4-((1R,5S)-3,8-diazabicyclo[3.2.1]octan-3-yl)-8-fluoro-2-((2-methylenehexahydroindolizin-8a(1H)-yl)methoxy)pyrido[4,3-d]pyrimidin-7-yl)-5-ethynyl-6-fluoronaphthalen-2-ol], 18 nM.
Still for that read-out and setting: with `C#Cc1c(F)ccc2cc(O)cc(-c3ncc4c(N5C[C@H]6CC[C@@H](C5)N6)nc(OCC56CCCCCN5CC(=C)C6)nc4c3F)c12` (stereo partly drawn) [Example 44, 4-(4-((1R,5S)-3,8-diazabicyclo[3.2.1]octan-3-yl)-8-fluoro-2-((2-methylenehexahydro-1H-pyrrolo[1,2-a]azepin-9a(5H)-yl)methoxy)pyrido[4,3-d]pyrimidin-7-yl)-5-ethynyl-6-fluoronaphthalen-2-ol] the figure was more than 100 nM.
